We go through eleven molecules from paper PMC10819458, “Using Pharmacokinetic–Pharmacodynamic Modeling to Study the Main Active Substances of the Anticancer Effect in Mice from Panax ginseng–Ophiopogon japonicus” (Molecules, 2024).

The nature of the data set: Lung-tissue pharmacokinetics of PG–OJ components in tumor-bearing mice (UPLC–MS/MS). The data set is classed as in vivo, BALB/c nude male mice. The following applies: for Cmax: read-out: Cmax; for MRT last: read-out: MRT(0–t) (converted). The text has this: This study employed Ultra-Performance Liquid Chromatography–Mass Spectrometry (UPLC–MS/MS) to examine the pharmacokinetic properties of 20 bioactive components in a cell-derived xenograft (CDX) model following oral administration of a 10.2 g/kg PG–OJ extract.
Healthy BALB/c nude male mice (weight: 18–21 g) were purchased from Beijing Huafukang Biotechnology Co., Ltd. (Beijing, China, License Number: SCXK (Jing) 2021-0006). After 3 days of acclimatization, the mice were randomly divided into the control group (CG), model group (MG), and the combined-administration group of P. ginseng and O. japonicus (HM1-HM13) ([…], four-fold clinical-equivalent doses). Subsequently, except for the CG, 0.2 mL (approximately 2 × 10^7 cells) of A549 cell suspension was aspirated with a 1 mL syringe and injected into the right axillary fossa of the model group and drug-administration-group mice. The control-group mice were injected with an equal volume of PBS at the same location. The tumor diameter was measured daily using a caliper. The model was successful when the tumor diameter > 3 mm. The combined-administration group of P. ginseng and O. japonicus was given the corresponding drug orally, once a day, with 0.2 mL/mouse each time. The control group and the model group mice were given the same volume of distilled water, continuously orally for 21 days. During this period, the body weight and tumor volume of the mice were recorded. At the end of the last administration, the mice were […] 0.083, 0.167, 0.25, 0.5, 0.75, 1, 2, 3, 4, 6, 8, 12, 24 h later. After injecting 0.1% pentobarbital sodium, blood was collected from the eye-socket vein, the mice were decapitated, and the tumor and lung tissues were carefully removed.
After homogenizing 50 mg of right-lung-tissue sample, 2 mL of acetonitrile was added to precipitate proteins. The mixture was oscillated for 2 min and then centrifuged for 10 min (12,000 rpm, 4 °C). The supernatant from the new centrifuge tube was collected and dried with nitrogen at room temperature. Finally, the supernatant was redissolved in 50 μL of acetonitrile solution containing 0.1% formic acid. After oscillating for 1 min, another centrifugation step was performed, and the resulting supernatant was used for analysis.
Samples were analyzed on the Vanquish UPLC System (Thermo, Waltham, MA, USA). The Agilent C18 column (4.6 × 150 mm, 4 μm, PN:693970-902T) was selected. The mobile phase was composed of 0.1% formic acid aqueous solution (A) and 0.1% formic acid acetonitrile solution (B). The procedure of gradient elution was as follows: 0–10 min, 95–75% A; 10–25 min, 75–45% A; 25–40 min, 45–30% A; 40–50 min, 30–5% A; 55–55.1 min, 5–95% A; 55.1–60 min, 95% A. The column temperature was set to 30 °C with the flow rate of 0.3 mL/min and the injection volume of 3.0 μL. The mass-spectrometry detection with negative-ion mode was carried out using an Orbitrap Exploris 120 Mass Spectrometer (Thermo, Waltham, MA, USA) and Electrospray ionization (ESI). The sheath-gas-flow rate was […] and the auxiliary-gas-flow rate was […]. The capillary temperature was 325 °C, and the resolution was 120,000 in full scan mode with the mass scan range of 80~1500 m/z. The secondary cracking was performed with HCD at a collision voltage of 30 eV, and unnecessary MS/MS information was removed using the dynamic exclusion method.

Setting [1] is: male, BALB/c nude, mouse, in vivo, po.
[2] abbreviates: male, BALB/c nude, mouse, in vivo, po, Tmax.
The mark [3] stands for this setting: lung tissue, A549 tumor-bearing mice, intragastric PG–OJ extract 10.2 g/kg (6.8 g/kg elsewhere in the source), mean ± SD, n = 6.
[4] abbreviates: lung tissue, oral PG–OJ extract, in words.
[5] abbreviates: male, BALB/c nude, mouse, lung tissue, po, 10.2 g/kg, lung tissue, A549 tumor-bearing mice, intragastric PG–OJ extract 10.2 g/kg (6.8 g/kg elsewhere in the source), mean ± SD, n = 6, read-out: Tmax (converted).
The mark [6] stands for this setting: male, BALB/c nude, mouse, lung tissue, po, 10.2 g/kg, lung tissue, oral PG–OJ extract, read-out: time to reach peak concentration.
[7] abbreviates: male, BALB/c nude, mouse, po, lung tissue, A549 tumor-bearing mice, intragastric PG–OJ extract 10.2 g/kg (6.8 g/kg elsewhere in the source), mean ± SD, n = 6.
Where [8] appears, read: male, BALB/c nude, mouse, po, lung tissue, A549 tumor-bearing mice, intragastric PG–OJ extract 10.2 g/kg (6.8 g/kg elsewhere in the source), mean ± SD, n = 6, read-out: T1/2.
Where [9] appears, read: lung tissue, oral PG–OJ extract.

Where two headings read alike, the source gives them in different places.

With 24(R)-pseudoginsenoside F11, where the note is “mouse, in vivo, po”, the T1/2 is 3.786 ± 0.2045 h, the Tmax is 0.25 ± 0 h and the “time to reach maximum concentration (Cmax) after administration” value (from here on “time to reach maximum concentration”) is given as not above 15 min.

Molecule `CC(C)=CCC[C@](C)(O[C@@H]1O[C@H](CO)[C@@H](O)[C@H](O)[C@H]1O)[C@H]1CC[C@]2(C)[C@@H]1[C@H](O)C[C@@H]1[C@@]3(C)CC[C@H](O)C(C)(C)[C@@H]3[C@@H](O)C[C@]12C` [Ginsenoside F1] showed a half-life under setting [1] of 2.24 ± 0.241 h. Also, the Tmax under setting [2] is 4 h. For the same molecule, the “exposure level in lung tissue” value (mouse, in vivo, po) is reported as “extremely low”.

For `CC(C)=CCC[C@](C)(O[C@@H]1O[C@H](CO)[C@@H](O)[C@H](O)[C@H]1O)[C@H]1CC[C@]2(C)[C@@H]1[C@H](O)C[C@@H]1[C@@]3(C)CC[C@H](O[C@@H]4O[C@H](CO)[C@@H](O)[C@H](O)[C@H]4O)C(C)(C)[C@@H]3CC[C@]12C` [Ginsenoside F2], under setting [1], the half-life came to 5.83 ± 0.269 h. The Tmax under setting [2] was 1 h. Moreover, the “AUC(0–∞) compared with other components” value (mouse, in vivo, po) was “significantly higher than those of other components”.

For orientation: Cmax means the peak of the concentration-time curve. `CC(C)=CCC[C@](C)(O[C@@H]1O[C@H](CO[C@@H]2O[C@H](CO)[C@@H](O)[C@H](O)[C@H]2O)[C@@H](O)[C@H](O)[C@H]1O)[C@H]1CC[C@]2(C)[C@@H]1[C@H](O)C[C@@H]1[C@@]3(C)CC[C@H](O[C@@H]4O[C@H](CO)[C@@H](O)[C@H](O)[C@H]4O[C@@H]4O[C@H](CO)[C@@H](O)[C@H](O)[C@H]4O)C(C)(C)[C@@H]3CC[C@]12C` [Ginsenoside Rb1]: under setting [3], the “AUC(0–t)” value is 227,245.91 ± 5460.47 ng/g·min and the “AUC(0–∞)” value is given as 283,948.70 ± 17,261.40 ng/g·min. For the same molecule, under setting [4], the “AUC(0–∞) compared with other components” value is “significantly higher than those of other components”. Further, under setting [5], the Tmax was 12 h. Further, under setting [6], the Tmax was 12 h. Under setting [7], the Cmax was determined as 441 ± 15.7 ng/g and the MRT last is 11.5 h. Under setting [8], the half-life worked out at 32.9 ± 3.15 h.

Turning to `CC(C)=CCC[C@](C)(O[C@@H]1O[C@H](CO[C@@H]2OC[C@H](O)[C@H](O)[C@H]2O)[C@@H](O)[C@H](O)[C@H]1O)[C@H]1CC[C@]2(C)[C@@H]1[C@H](O)C[C@@H]1[C@@]3(C)CC[C@H](O[C@@H]4O[C@H](CO)[C@@H](O)[C@H](O)[C@H]4O[C@@H]4O[C@H](CO)[C@@H](O)[C@H](O)[C@H]4O)C(C)(C)[C@@H]3CC[C@]12C` [Ginsenoside Rb2], under setting [3], the “AUC(0–t)” value came to 3935.63 ± 598.40 ng·min/g and the “AUC(0–∞)” value worked out at 6076.50 ± 664.68 ng·min/g. Also, under setting [7], the Cmax was found to be 7.2 ± 0.96 ng/g and the MRT last was 11.9 h. In addition, the half-life under setting [8] was found to be 19.9 ± 4.38 h.

Turning to `CC(C)=CCC[C@](C)(O[C@@H]1O[C@H](CO[C@@H]2OC[C@@H](O)[C@H](O)[C@H]2O)[C@@H](O)[C@H](O)[C@H]1O)[C@H]1CC[C@]2(C)[C@@H]1[C@H](O)C[C@@H]1[C@@]3(C)CC[C@H](O[C@@H]4O[C@H](CO)[C@@H](O)[C@H](O)[C@H]4O[C@@H]4O[C@H](CO)[C@@H](O)[C@H](O)[C@H]4O)C(C)(C)[C@@H]3CC[C@]12C` [Ginsenoside Rb3], under setting [3], the “AUC(0–t)” value amounted to 4049.29 ± 622.84 ng·min/g and the “AUC(0–∞)” value is recorded as 16,689.44 ± 2585.97 ng/g·min. Besides, under setting [7], the Cmax stood at 5.92 ± 0.45 ng/g and the MRT last is 13.8 h. In addition, under setting [8], the half-life is 66.6 ± 8.6 h.

Consider `CC(C)=CCC[C@](C)(O[C@@H]1O[C@H](CO[C@@H]2O[C@@H](CO)[C@H](O)[C@H]2O)[C@@H](O)[C@H](O)[C@H]1O)[C@H]1CC[C@]2(C)[C@@H]1[C@H](O)C[C@@H]1[C@@]3(C)CC[C@H](O[C@@H]4O[C@H](CO)[C@@H](O)[C@H](O)[C@H]4O[C@@H]4O[C@H](CO)[C@@H](O)[C@H](O)[C@H]4O)C(C)(C)[C@@H]3CC[C@]12C` [Ginsenoside Rc], for which, under setting [3], the “AUC(0–t)” value is given as 23,180.66 ± 703.80 ng/g·min and the “AUC(0–∞)” value is reported as 25,129.88 ± 1611.92 ng/g·min. The Tmax under setting [5] is 12 h. Further, the Tmax under setting [6] is 12 h. Further, under setting [7], the Cmax turned out to be 43 ± 2.11 ng/g and the MRT last is 11.6 h. The half-life under setting [8] is 7.41 ± 1.68 h.

In the case of `CC(C)=CCC[C@](C)(O[C@@H]1O[C@H](CO)[C@@H](O)[C@H](O)[C@H]1O)[C@H]1CC[C@]2(C)[C@@H]1[C@H](O)C[C@@H]1[C@@]3(C)CC[C@H](O[C@@H]4O[C@H](CO)[C@@H](O)[C@H](O)[C@H]4O[C@@H]4O[C@H](CO)[C@@H](O)[C@H](O)[C@H]4O)C(C)(C)[C@@H]3CC[C@]12C` [Ginsenoside Rd], under setting [3], the “AUC(0–t)” value was 46,163.94 ± 1033.00 ng/g·min and the “AUC(0–∞)” value is given as 56,296.57 ± 6663.99 ng/g·min. Further, the “AUC(0–∞) compared with other components” value under setting [4] is “significantly higher than those of other components”. Also, under setting [7], the Cmax stood at 83 ± 2.11 ng/g and the MRT last is 11.1 h. Also, under setting [8], the half-life was 16.2 ± 3.68 h.

`CC(C)=CCC[C@](C)(O[C@@H]1O[C@H](CO)[C@@H](O)[C@H](O)[C@H]1O)[C@H]1CC[C@]2(C)[C@@H]1[C@H](O)C[C@@H]1[C@@]3(C)CC[C@H](O)C(C)(C)[C@@H]3[C@@H](O[C@@H]3O[C@H](CO)[C@@H](O)[C@H](O)[C@H]3O[C@@H]3O[C@@H](C)[C@H](O)[C@@H](O)[C@H]3O)C[C@]12C` [Ginsenoside Re]: under setting [3], the “AUC(0–t)” value stood at 3815.68 ± 233.30 ng·min/g and the “AUC(0–∞)” value turned out to be 3933.20 ± 224.66 ng·min/g. Also, the “time to reach maximum concentration” value under setting [9] is given as not above 15 min. Also, the Tmax under setting [5] is 0.0833 h. Further, under setting [7], the Cmax turned out to be 132 ± 32.9 ng/g and the MRT last is 1.57 h. Also, the half-life under setting [8] turned out to be 1.76 ± 0.0727 h.

With `CC(C)=CCC[C@](C)(O)[C@H]1CC[C@]2(C)[C@@H]1[C@H](O)C[C@@H]1[C@@]3(C)CC[C@H](O)C(C)(C)[C@@H]3[C@@H](O[C@@H]3O[C@H](CO)[C@@H](O)[C@H](O)[C@H]3O[C@@H]3O[C@H](CO)[C@@H](O)[C@H](O)[C@H]3O)C[C@]12C` [Ginsenoside Rf], under setting [1], the half-life is 1.28 ± 0.0173 h. Further, the Tmax under setting [2] was 0.25 h. Further, for the setting “mouse, in vivo, po”, the “time to reach maximum concentration” value was not above 15 min.

Consider `CC(C)=CCC[C@](C)(O[C@@H]1O[C@H](CO)[C@@H](O)[C@H](O)[C@H]1O)[C@H]1CC[C@]2(C)[C@@H]1[C@H](O)C[C@@H]1[C@@]3(C)CC[C@H](O)C(C)(C)[C@@H]3[C@@H](O[C@@H]3O[C@H](CO)[C@@H](O)[C@H](O)[C@H]3O)C[C@]12C` [Ginsenoside Rg1], for which, under setting [3], the “AUC(0–t)” value worked out at 2295.03 ± 213.32 ng·min/g and the “AUC(0–∞)” value stood at 2345.90 ± 212.68 ng·min/g. The “time to reach maximum concentration” value under setting [9] is not above 15 min. Under setting [5], the Tmax was 0.25 h. Also, under setting [7], the Cmax came out at 50.2 ± 6.67 ng/g and the MRT last was 2.26 h. Moreover, the half-life under setting [8] turned out to be 1.64 ± 0.0457 h.
